For one assay, the system named is mdx hearts. Conditions: cited from earlier work.
The subject of assay [1] is Primary cultures of skeletal muscle cells. Kind of assay: Primary cultures of skeletal muscle cells treated with GTE and EGCG (MyHC staining, Western blot). The class given is cell-based, mice. The protocol: GTE and EGCG also display unexpected pro myogenic properties. Primary cultures of skeletal muscle cells were established from both normal and dystrophic mice and treated with GTE and EGCG for 1-7 days. […] The amount of myotubes reached similar level with both agents compared to control thereafter. Western-blot analysis was performed on myotube cultures treated for 7 days.

Assay [2] concerns Utrophin A promoter linked to a luciferase reporter gene (H2K/mdx/Utro A reporter cell line). Kind of assay: Luciferase reporter assay (murine H2K cells). The class given is cell-based. Conditions: Mus musculus; final concentration of 10 μM; incubated for a further 48 hrs. As to the method: The cell line used for the screen is an immortalized mdx mouse H2K cell line that has been stably transfected with a plasmid containing ≈5 kb fragment of the Utrophin A promoter including the first untranslated […] linked to a luciferase reporter gene.
Under conditions of low temperature and interferon containing media, the cells remain as myoblasts. These are plated into 96 well plates and cultured in the presence of compound for three days. The level of luciferase is then determined by cell lysis and reading of the light output from the expressed luciferase gene utilising a plate luminometer.
The H2K/mdx/Utro A reporter cell line was passaged twice a week until ≦30% confluent. The cells were grown at 33° C. in the presence of 10% CO2
To remove the myoblasts for platting, they were incubated with Trypsin/EDTA until the monolayer started to detach.
• DMEM Gibco 41966 • 20% FCS • 1% Pen/Strep • 1% glutamine • 10 mls Chick embryo extract • Interferon(1276 905 Roche) Add fresh 10 μl/50 mls medium
The H2K/mdx/Utro A reporter cell line cells were plated out into 96 well plates (Falcon 353296, white opaque) at a density of approximately 5000 cells/well in 190 μl normal growth medium. The plates were then incubated at 33° C. in the presence of 10% CO2 for 24 hrs.
Compounds were dosed by adding 10 μl of diluted compound to each well giving a final concentration of 10 μM. The plates were then incubated for a further 48 hrs
Cells were then lysed in situ following the manufacture's protocols (Promega Steady-Glo Luciferase Assay System (E2520). Then counted for 10 seconds using a plate luminometer (Victor1420).
(Reporter assays use an easily measured gene product as a stand-in for the process of interest.)

The mark [3] stands for this setting: Western blot, myotube cultures treated for 7 days.

For the molecule `CCCc1nn(C)c2c(=O)[nH]c(-c3cc(S(=O)(=O)N4CCN(C)CC4)ccc3OCC)nc12` [sildenafil], the myocardial contractile performance result in the assay with mdx hearts is on record as “prevents deterioration”.
Take `O=C(O[C@@H]1Cc2c(O)cc(O)cc2O[C@@H]1c1cc(O)c(O)c(O)c1)c1cc(O)c(O)c(O)c1` [EGCG, epigallocatechin gallate]: in assay [1] (setting [3]), the expression of desmin entry is reported as “down-regulated”; the “expression of muscle-specific proteins (dystrophin in control cultures, sarcomeric alpha actinin, MyHC)” value is recorded as “promoted the expression”; the myogenin expression entry is given as “unchanged”. Moreover, the “rate of formation of myotubes (in situ staining of MyHC)” value in assay [1] (within the first 2-4 days of application, normal and dystrophic mice cells) is “concentration-dependently stimulated”.
Turning to `CC(C)S(=O)(=O)c1ccc2cn(-c3ccc(Cl)cc3)nc2c1` [Example 56, 2-(4′-Chlorophenyl)-6-(isopropylsulfonyl)-2H-indazole], the activity at 10 µM in assay [2] is above 401%.
Turning to `CCS(=O)(=O)c1ccc2nn(-c3ccc(Cl)cc3)nc2c1` [Example 52, 2-(4′-chlorophenyl)-5-(ethylsulfonyl)-benzotriazole], the activity at 10 µM in assay [2] is above 401%.
The same measure, in the same setting: then `Cc1cc2nn(-c3ccc(Cl)cc3)nc2cc1NC(=O)c1ccncc1` [Example 2, N-(2-(4-chlorophenyl)-6-methyl-2H-benzo[d][1,2,3]triazol-5-yl)isonicotinamide], with 201 to 300%.
On to `CN(C)c1ccc(-n2nc3ccc(N)cc3n2)cc1` [Example 41, 2-(4-(dimethylamino)phenyl)-2H-benzo[d][1,2,3]triazol-5-amine], for which, in assay [2], the activity at 10 µM was in the range of 301 to 400%.
On to `CCN(CC)c1ccc(-n2nc3ccc(NC(=O)c4ccccc4)cc3n2)cc1` [Example 29, N-(2-(4-(diethylamino)phenyl)-2H-benzo[d][1,2,3]triazol-5-yl)benzamide], for which the activity at 10 µM in assay [2] is below 200%.
Still for that read-out and setting: then `CCC(=O)Nc1cc2nn(-c3ccc(N(CC)CC)cc3)nc2cc1C` [Example 14, N-(2-(4-(diethylamino)phenyl)-6-methyl-2H-benzo[d][1,2,3]triazol-5-yl)propionamide], with below 200%.
